From US20240415828A1, “TLR7 AGONIST AND COMBINATIONS FOR CANCER TREATMENT” (BIONTECH SE, priority 2021, published 2024)

Tests used:
Human whole blood = assay: Cytokine release in human whole blood treated in vitro (CBA); type: cell-based
Description: FIG. 7. Release of certain cytokines upon treatment of whole blood from human donors with BNT411 at various concentrations. Whole blood drawn from healthy human volunteers was treated in vitro with BNT411 to investigate the induction of the following cytokines/chemokines: IFNα, IP-10, IL-6, and TNFα. BNT411 concentrations ranging from 0.1 nM (1×) to 7.5 μM (75000×). The fold increase to baseline is shown for each cytokine and BNT411 concentration tested.
After performing a serial dilution of the test compounds (such as BNT411), 5 μL of each sample is transferred/pipetted to single wells of a 96-well-plate. As negative control, plasma which has been prepared from whole blood of each donor is used. Subsequently, 245 μL of RPMI-medium is added to each well, leading to a 1:50 dilution of each sample, named spiking solutions. The heparinized whole blood is pipetted to separate 96-well-plate. After seeding whole blood, the prepared spiking solutions are added: 190 μL of whole blood is seeded in each well and 10 μL of spiking solutions is added to get a final volume of 200 μL per well and additional 1:20 dilution of all samples. Finally, the plates are incubated at 37° C. and 5% CO2. After 24 h incubation the plates are centrifuged at 500×g for 5 min. The plasma of all samples is harvested, transferred to a new 96-well-plate and frozen at −15° C. to −25° C. until performing the CBA, but at least 3 h.
The CBA is performed with the frozen/thawed plasma samples according to the manufacturer's instructions for ProCarta multiplex kits. For evaluation of cytokine concentrations, assay duplicates of all samples are measured by using the luminex system. After checking standard curves with the instrument control system (Bio-Plex Manager 4.1.1) the raw data are transferred to excel. Graphical analysis is performed with GraphPad Prism 6.
Human whole blood was obtained from healthy donors and treated in vitro with BNT411 (concentration range: 0.1 nM to […]). 24 h after stimulation secretion of several cytokines, including IFNα, IP-10, IL-6, and TNFα, was analyzed by a multiplexed CBA.

[1] = test system: CT26 colon carcinoma cells; assay: CT26 tumor model, BNT411 alone and with anti-PD-L1 antibody (Example 5); type: in vivo; conditions: no adverse clinical effects, higher toxicities, or body weight loss
Description: FIG. 6. Anti-tumoral efficacy of BNT411 alone and in combination with an anti-PD-L1 antibody in a tumor mouse model. Mice (n=10 per group) subcutaneously inoculated with 5×10^5 CT26 colon carcinoma cells were used as tumor mouse model. The anti-PD-L1 antibody anti-PD-L1-mIgG1e3 was administered intraperitoneally (i.p.) at a dose level of 200 μg per animal. BNT411 was administered i.v. at a dose level of 3 mg/kg. All treatments were delivered once every five days for a total of six doses. Body weight changes and tumor growth were assessed on study day 21 when there were at least nine animals alive in each group. (A) Dosing schedule. (B) Graph showing the tumor volumes vs. study day. Mean tumor volume±SEM (mm^3) is depicted for each treatment. Last observations were carried forward until day 35 when only the animal who cleared the tumor was left. […]
BALB/c mice were inoculated s.c. with 2.5×10^5−5×10^5 CT26-WT into the flank, respectively. […] Tumor volume was measured unblinded with a caliper and calculated using the formula (a×b^2)/2 (a being the largest and b being the smallest diameter of the tumor). […]
Four groups of 10 animals were inoculated with 1×10^6 CT26 cells per animal into the dorsal right flank (day 0). […] Body weight changes and tumor growth were assessed on study day 21 when there were at least nine animals alive in each group. […]

BALB/c mice = assay: In vivo cytokine release in BALB/c mice (IFNa ELISA); set-up: species or system mouse; conditions: 3 mg/kg retro-orbital vs 5, 10, 15 mg/kg; blood 1 h after application
Description: FIG. 2. In vivo cytokine release in BALB/c mice upon administration of BNT411. Female BALB/c mice were retro-orbitally administered with doses of 3, 5, 10, and 15 mg/kg BNT411. Blood samples were drawn 1 h after compound application and analyzed with mouse IFNa ELISA.
Serum levels of IFNα were measured by sandwich ELISA (Pbl Assay Systems) according to manufacturer's instructions.
Female BALB/c mice were retro-orbitally administered with doses of 3, 5, 10, and 15 mg/kg BNT411. Blood samples were drawn 1 h after compound application and analyzed with mouse IFNa ELISA.

COCCc1nc2c(N)nc3ccccc3c2n1CCCCN(C(C)=O)C1CCOCC1 [BNT411]
concentrations required for inducing secretion of pyrogenic proinflammatory cytokines (e.g., TNFα) relative to IFNα (Human whole blood; FIG. 7): up to two orders of magnitude higher
IFNα secretion induced at fold lower concentrations than needed for induction of IL-6, TNFα, and IL-10 (Human whole blood; human whole blood, 24 h): 5- to 25 fold
concentration at which IL-6, TNFa and IL-10 start to be induced (Human whole blood; human whole blood, 24 h): about 0.06 μM
concentration at which significant IFNα release was induced (Human whole blood; human whole blood, 24 h): 0.012 µM
concentration for maximal induction of IFNα, fold lower than for maximal induction of IL-6, TNFα, and IL-10 (Human whole blood; human whole blood, 24 h): 25- to 100 fold
tolerability throughout treatment [1]: well tolerated
IFNa secretion (BALB/c mice): stronger IFNa secretion as compared to higher BNT411 doses
